Test results published in patent publication US12595269B2, “Morpholine-like monoamine releasers” (Solvonis Therapeutics Ireland Holdings Limited, priority 2022, dated 2026).

Target: T1, CYP1A2 (Homo sapiens, UniProt P05177)
T1 construct: host or cells: recombinant microsomes
T1 sequence (P05177 1-516): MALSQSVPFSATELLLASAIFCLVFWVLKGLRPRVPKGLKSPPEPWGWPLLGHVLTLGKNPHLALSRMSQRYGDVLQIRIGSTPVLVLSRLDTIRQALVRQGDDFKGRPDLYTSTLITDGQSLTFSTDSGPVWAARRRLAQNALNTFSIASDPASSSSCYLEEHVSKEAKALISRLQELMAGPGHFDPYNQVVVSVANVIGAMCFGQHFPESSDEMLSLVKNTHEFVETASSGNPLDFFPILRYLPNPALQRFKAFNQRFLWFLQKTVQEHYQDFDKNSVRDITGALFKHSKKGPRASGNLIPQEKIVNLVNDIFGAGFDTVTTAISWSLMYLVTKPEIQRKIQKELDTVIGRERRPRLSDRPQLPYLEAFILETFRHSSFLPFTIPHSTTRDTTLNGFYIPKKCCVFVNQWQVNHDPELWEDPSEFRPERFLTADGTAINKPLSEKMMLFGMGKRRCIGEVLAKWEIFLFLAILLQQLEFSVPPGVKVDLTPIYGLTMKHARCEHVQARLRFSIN
Assay: CYP450 inhibition, fluorescent probe, recombinant microsomes: CYP1A2
Assay type: in vitro ADME
Protocol: Methods and Procedure: The study was performed in agreement with previously described procedures to assure data integrity and adherence to GLP standards. Briefly, recombinant human CYP450 isoenzymes were used to metabolize pro-fluorescent probe substrates to fluorescent products. IC50 values determined from the effect of test compounds on the metabolism of these probe substrates were then used to determine inhibitory potency against CYP450 isoforms.
The test system was based on a three-step procedure with a “mix and read” format, where PGP-432,TI reaction and reading were performed at 37° C. […] Fluorescence was measured in kinetic mode (1 read/minutes for 10 minutes), and the fluorescence rate was calculated. […]
Microsomes were added to the buffer prior to the substrate addition. […] For fluorescence measurement, 10 μL/well of the test compounds were transferred from the compound plate to the assay plate using Biomek FX and the appropriate protocol. […]
10 μL/well of the cofactor was then added to the assay plate using the Multidrop before placing the assay plate in the plate reader EnVision to measure fluorescence. […]
Next, 10 μL/well from the compound plate was added and incubated for 10 minutes at 37° C. on a plate shaker, while a mixture of Vivid Substrate and Vivid NADP+ in Vivid CYP450 Reaction Buffer was prepared. […] Regarding data analysis, the inhibition effect is expressed as a percentage. […]

Row | Compound | IC50 (recombinant human CYP1A2) | IC50 at 10 min (human, recombinant microsomes expressing CYP1A2)
1 | Clc1ccc(C23CNC(CO2)C3)cc1Cl (centres unmarked) [522A, 1-(3,4-dichlorophenyl)-2-oxa-5-azabicyclo[2.2.1]heptane] | > 50 µM | –
2 | CNC(C)Cc1ccc2c(c1)OCO2 (centres unmarked) [MDMA, reference compound] | – | 50 µM
